Source: ChEMBL document CHEMBL3046756, “Synthesis, anti-inflammatory, and structure antioxidant activity relationship of novel 4-quinazoline” (Med Chem Res, 2013)
Calls of active or inactive are those of the source. No cut-off for these calls is given here.

Assays:
Assay type in all cases: functional
[1] = Antioxidant activity assessed as inhibition of linoleic acid peroxidation at 100 mg/l after 24 hr by spectrophotometric analysis
[2] = system: Radical scavenging activity; experiment: Antioxidant activity assessed as DPPH free radical scavenging activity at 0.06 mg/ml after 5 to 60 min by spectrophotometric analysis
[3] = Antioxidant activity assessed as reduction of Fe3+ to Fe2+ at 20 to 140 ug/ml after 30 min by spectrophotometric analysis
Rattus norvegicus [4] = experiment: Anti-inflammatory activity in Wistar Rattus norvegicus (rat) assessed as inhibition of carrageenan-induced paw edema at 30 mg/kg, po administered 30 min prior to carrageenan challenge measured at 120 min relative to untreated control
Rattus norvegicus [5] = experiment: Effect on gamma-glutamyl transferase level in Wistar Rattus norvegicus (rat) serum at 30 mg/kg, po qd after 10 days (reference value: 0.57 +/- 0.04 U/I)
Rattus norvegicus [6] = experiment: Effect on SGPT level in Wistar Rattus norvegicus (rat) at 30 mg/kg, po qd after 10 days (reference value: 38.77 +/- 4.25 U/I)
Rattus norvegicus [7] = experiment: Effect on glutathione peroxidase level in Wistar Rattus norvegicus (rat) liver measured GSH oxidized per min per mg of protein at 30 mg/kg, po after 10 days (reference value: 47.47 +/- 3.86 mmol)
Rattus norvegicus [8] = experiment: Effect on TBARS level in Wistar Rattus norvegicus (rat) serum at 30 mg/kg, po qd after 10 days (reference value: 0.82 +/- 0.073 nmol/ml)
Rattus norvegicus [9] = experiment: Effect on GSH level in Wistar Rattus norvegicus (rat) liver measured per mg of protein at 30 mg/kg, po after 10 days (reference value: 1.84 +/- 0.092 mg)
Rattus norvegicus [10] = experiment: Anti-inflammatory activity in Wistar Rattus norvegicus (rat) assessed as inhibition of carrageenan-induced paw edema at 30 mg/kg, po administered 30 min prior to carrageenan challenge measured at 180 min relative to untreated control
Rattus norvegicus [11] = experiment: Effect on glutathione reductase level in Wistar Rattus norvegicus (rat) liver measured NADPH oxidized per min per mg of protein at 30 mg/kg, po after 10 days (reference value: 4.19 +/ 0.42 nmol)
Rattus norvegicus [12] = experiment: Anti-inflammatory activity in Wistar Rattus norvegicus (rat) assessed as inhibition of carrageenan-induced paw edema at 30 mg/kg, po administered 30 min prior to carrageenan challenge measured at 90 min relative to untreated control
Rattus norvegicus [13] = experiment: Anti-inflammatory activity in Wistar Rattus norvegicus (rat) assessed as inhibition of carrageenan-induced paw edema at 30 mg/kg, po administered 30 min prior to carrageenan challenge measured at 60 min relative to untreated control
Rattus norvegicus [14] = experiment: Effect on GST level in Wistar Rattus norvegicus (rat) liver measured CDNB conjugated per min per mg of protein at 30 mg/kg, po after 10 days (reference value: 0.86 +/- 0.08 mmol)
Rattus norvegicus [15] = experiment: Effect on ALP level in Wistar Rattus norvegicus (rat) serum at 30 mg/kg, po qd after 10 days (reference value: 39.5 +/- 3.86 U/I)
Rattus norvegicus [16] = experiment: Effect on LDH level in Wistar Rattus norvegicus (rat) serum at 30 mg/kg, po qd after 10 days (reference value: 249.89 +/- 13.26 U/I)
Rattus norvegicus [17] = experiment: Anti-inflammatory activity in Wistar Rattus norvegicus (rat) assessed as inhibition of carrageenan-induced paw edema at 30 mg/kg, po administered 30 min prior to carrageenan challenge measured at 30 min post carrageenan challenge relative to untreated control
Rattus norvegicus [18] = experiment: Effect on SGOT level in Wistar Rattus norvegicus (rat) at 30 mg/kg, po qd after 10 days (reference value: 145.50 +/- 13.86 U/I)
Rattus norvegicus [19] = experiment: Antipyretic activity in Wistar Rattus norvegicus (rat) assessed as decrease in Brewer's yeast solution-induced hyperthermia at 20 mg/kg, po measured after 3 hr (reference value: 36.8 +/- 1.9 degC)
Rattus norvegicus [20] = experiment: Antipyretic activity in Wistar Rattus norvegicus (rat) assessed as decrease in Brewer's yeast solution-induced hyperthermia at 20 mg/kg, po measured after 2 hr (reference value: 37 +/- 1.7 degC)
Rattus norvegicus [21] = experiment: Antipyretic activity in Wistar Rattus norvegicus (rat) assessed as decrease in Brewer's yeast solution-induced hyperthermia at 20 mg/kg, po measured after 1 hr (reference value: 37 +/- 3.55 degC)

Question: What does the source list for `Cc1c(C)c2c(c(C)c1O)CCC(C)(C(=O)O)O2` (centres undefined)?
Answer: inhibition [1]: Active; Activity [2]: Active

Question: Which results are given for `Cc1c(C)c2c(c(C)c1O)CC[C@@](C)(CCC[C@H](C)CCC[C@H](C)CCCC(C)C)O2`?
Answer: inhibition [1]: Active; Activity [3]: Active

Question: For `O=C([O-])Cc1ccccc1Nc1c(Cl)cccc1Cl.[Na+]` [DICLOFENAC SODIUM], which inhibition in vivo at 30 mg/kg (Rattus norvegicus [4]) is on record?
Answer: 92.8%

Question: And the Activity (Rattus norvegicus [5])?
Answer: 1.37 U/L

Question: And the Activity (Rattus norvegicus [6])?
Answer: 84.43 U/L

Question: What about the Activity (Rattus norvegicus [7]) of the same molecule?
Answer: 32.09 mmol

Question: And the Activity (Rattus norvegicus [8])?
Answer: 1.41 nmol/mL

Question: And the Activity (Rattus norvegicus [9])?
Answer: 0.79 mg

Question: What about the inhibition in vivo at 30 mg/kg (Rattus norvegicus [10]) of the same molecule?
Answer: 100%

Question: What about the Activity (Rattus norvegicus [11]) of the same molecule?
Answer: 3.28 nmol

Question: What about the inhibition in vivo at 30 mg/kg (Rattus norvegicus [12]) of the same molecule?
Answer: 86.3%

Question: What about the inhibition in vivo at 30 mg/kg (Rattus norvegicus [13]) of the same molecule?
Answer: 82%

Question: What about the Activity (Rattus norvegicus [14]) of the same molecule?
Answer: 0.63 mmol

Question: And the Activity (Rattus norvegicus [15])?
Answer: 75.25 U/L

Question: What about the Activity (Rattus norvegicus [16]) of the same molecule?
Answer: 320.69 U/L

Question: And the inhibition in vivo at 30 mg/kg (Rattus norvegicus [17])?
Answer: 41.3%

Question: What about the Activity (Rattus norvegicus [18]) of the same molecule?
Answer: 201.27 U/L

Question: Which results are given for `Cc1cc(C(C)(C)C)c(O)c(C(C)(C)C)c1`?
Answer: inhibition [1]: Active; Activity [3]: Active

Question: What does the source list for `CC(=O)Nc1ccc(O)cc1` [ACETAMINOPHEN]?
Answer: T (Rattus norvegicus [19]): 36.4 °C; T (Rattus norvegicus [20]): 36.8 °C; T (Rattus norvegicus [21]): 37 °C
